# Key:
# Spodoptera frugiperda [1] = assay: Spodoptera frugiperda test (SPODFR spray treatment), maize leaf discs; format: in vivo; settings: for efficacy in %: application rate 500 g/ha, after 7 days
# Excerpt: Spodoptera frugiperda Test (SPODFR Spray Treatment)
# Myzus persicae = assay: Myzus test (MYZUPE spray treatment); format: in vivo; settings: for efficacy in %: application rate 500 g/ha, after 6 days
# Procedure: Myzus test (Myzupe spray treatment)
# After 6 days, the efficacy in % is determined.
# Myzus Test (MYZUPE Spray Treatment)
# Tetranychus urticae [2] = assay: Tetranychus test, OP-resistant (TETRUR spray treatment), bean leaf discs; format: in vivo; settings: for efficacy in %: application rate 500 g/ha, after 6 days
# Procedure: Tetranychus Test, OP-Resistant (TETRUR Spray Treatment)
# After a time of 6 days, the efficacy in % is determined.
# Ctenocephalides felis = Ctenocephalides felis oral (CTECFE); format: in vivo; settings: for kill in % (effect): 100 ppm, after 2 days
# Procedure: Ctenocephalides felis Oral (CTECFE)
# Solvent: 1 part by weight of dimethyl sulphoxide
# For the purpose of producing a suitable preparation of active compound, 10 mg of active compound are mixed with 0.5 ml of dimethyl sulphoxide. A portion of the concentrate is diluted with citrated cattle blood, and the desired concentration is prepared.
# (§1) About 20 unfed adult fleas (Ctenocephalides felis) are placed into a chamber which is closed at the top and bottom with gauze. A metal cylinder whose bottom end is closed with parafilm is placed onto the chamber. The cylinder contains the blood/active compound preparation, which can be taken up by the fleas through the parafilm membrane. After 2 days, the kill in % is determined.
# For the purpose of preparing an appropriate active compound formulation, 10 mg of active compound are mixed with 0.5 ml of dimethyl sulphoxide. A portion of the concentrate is diluted with citrated cattle blood, and the desired concentration is prepared.
# as §1, with “membrane.” for “membrane. After 2 days, the kill in % is determined.”
# Lucilia cuprina larvae = assay: Lucilia cuprina test (LUCICU); format: in vivo; settings: 100 ppm; after 2 days
# Procedure: Lucilia cuprina Test (LUCICU)
# (§2) Solvent: dimethyl sulphoxide
# Vessels containing horse meat treated with the active compound preparation of the desired concentration are populated with about 20 Lucilia cuprina larvae.
# (§3) After 2 days, the kill in % is determined.
# Musca domestica = Musca domestica test (MUSCDO); format: in vivo; settings: for kill in % (efficacy): 100 ppm, after 2 days
# Procedure: Musca domestica Test (MUSCDO)
# as §2
# Vessels containing a sponge treated with the active compound preparation of the desired concentration are populated with adult Musca domestica.
# as §3
# Vessels containing a sponge treated with the active compound formulation of the desired concentration are populated with adult Musca domestica.
# After the desired period of time, the kill in % is determined.
# Boophilus microplus = Boophilus microplus test (BOOPMI injection); format: in vivo; settings: for efficacy in % (laying of fertile eggs): 20 μg/animal, after 7 days; for % Activity dat: BOOPMI injection, 7 dat
# Procedure: Boophilus microplus Test (BOOPMI Injection)
# as §2
# The active compound solution is injected into the abdomen (Boophilus microplus), and the animals are transferred into dishes and stored in a climate-controlled room. The activity is assessed by laying of fertile eggs.
# The active compound solution is injected into the abdomen (Boophilus microplus), and the animals are transferred into dishes and stored in a climate-controlled room.
# The activity is assessed by laying of fertile eggs. 100% means that none of the ticks has laid any fertile eggs.
# [3] = system: Boophilus microplus females of the SP-resistant Parkhurst strain; assay: Boophilus microplus test (DIP); format: in vivo; settings: for efficacy in % (laying of fertile eggs): 100 ppm, after 7 days; for inhibition at 20 ppm: Rhipicephalus microplus, 168 h, BOOPMI DIP, 7 dat
# Procedure: Boophilus microplus Test (DIP)
# Test animals: adult engorged Boophilus microplus females of the SP-resistant Parkhurst strain
# as §2
# 10 mg of active compound are dissolved in 0.5 ml of dimethyl sulphoxide. For the purpose of preparing a suitable formulation, the active compound solution is diluted with water to the concentration desired in each case.
# This active compound preparation is pipetted into tubes. 8-10 ticks are transferred into a further tube with holes. The tube is immersed into the active compound formulation, and all ticks are completely wetted. After the liquid has rum off, the ticks are transferred to filter discs in plastic dishes and kept in a climatized room. The activity is assessed after 7 days by laying of fertile eggs. Eggs whose fertility is not outwardly visible are stored in glass tubes in a climate-controlled cabinet until the larvae hatch. An efficacy of 100% means that none of the ticks has laid any fertile eggs.
# 10 mg of active compound are dissolved in 0.5 ml of dimethyl sulphoxide. For the purpose of preparing a suitable formulation, the active compound solution is diluted with water to the concentration desired in each case (in ppm).
# This active compound preparation is pipetted into tubes. 8-10 ticks are transferred into a further tube with holes. The tube is immersed into the active compound formulation, and all ticks are completely wetted. After the liquid has run out, the ticks are transferred onto filter discs in plastic dishes and stored in a climate-controlled room.
# The activity is assessed after the desired time by laying of fertile eggs. Eggs whose fertility is not evident from the outside are kept in glass tubes in a climate-controlled cabinet until the larvae have hatched. An effect of 100% means that none of the ticks has laid any fertile eggs.
# Phaedon cochleariae [4] = assay: Phaedon cochleariae spray test (PHAECO), cabbage leaves, ppm; format: in vivo; settings: 168 h, 7 dat
# Excerpt: Phaedon cochleariae Spray Test (PHAECO)
# (§4) Solvent: 7 parts by weight of dimethylformamide
# (§5) Emulsifier: 2 parts by weight of alkylaryl polyglycol ether
# (§6) If the addition of ammonium salts or/and penetrants is required, these are in each case added in a concentration of 1000 ppm to the solution of the preparation.
# Nilaparvata lugens = Nilaparvata lugens spray test (NILALU); format: in vivo; settings: 168 h, 7 dat
# Excerpt: Nilaparvata lugens Spray Test (NILALU)
# as §6
# [5] = log P by HPLC, EEC Directive 79/831 Annex V.A8, method a); format: physicochemical; settings: reversed-phase C18, acetonitrile/water with formic acid, gradient 10% to 95% acetonitrile; for chromatographic logP: reversed-phase C18 HPLC column; cell marked a): HPLC; for logP: cell marked a): HPLC
# Procedure: (§7) ^a) Note regarding the determination of the log P values and mass detection The determination of the given log P values was carried out in accordance with EEC Directive 79/831 Annex V.A8 by HPLC (High Performance Liquid Chromatography) on a reversed-phase column (C18). Agilent 1100 LC system; 50*4.6 Zorbax Eclipse Plus C18 1.8 micron; mobile phase A: acetonitrile (0.1% formic acid); mobile phase B: water (0.09% formic acid); linear gradient from 10% acetonitrile to 95% acetonitrile in 4.25 min, then 95% acetonitrile for a further 1.25 min; oven temperature 55° C.; flow rate: 2.0 ml/min Mass detection is via an Agilend MSD system.
# as §7, with “mass detection:” for “mass detection”, “2.0 ml/min.” for “2.0 ml/min”
# Phaedon cochleariae [6] = assay: Phaedon test (PHAECO spray treatment), Chinese cabbage leaf discs; settings: for efficacy in %: application rate 500 g/ha, after 7 days; for inhibition at 20 g/ha: Phaedon cochleariae, in Brassica rapa, foliar, 168 h, read-out: % Activity dat
# Spodoptera frugiperda [7] = assay: Spodoptera frugiperda spray test (SPODFR), cotton leaves, ppm; format: in vivo; settings: 168 h, 7 dat
# Excerpt: Spodoptera frugiperda Spray Test (SPODFR)
# as §4, §5, §6
# Cotton leaves (Gossypium hirsutum) are sprayed with an active compound formulation of the desired concentration and populated with caterpillars of the armyworm (Spodoptera frugiperda).
# Heliothis armigera = Heliothis armigera spray test (HELIAR); format: in vivo; settings: Helicoverpa armigera, 168 h, 7 dat
# Excerpt: Heliothis armigera Spray Test (HELIAR)
# as §4, §5, §6
# Tetranychus urticae [8] = assay: Tetranychus urticae spray test, OP-resistant (TETRUR), bean plants, ppm; format: in vivo; settings: 168 h, 7 dat
# Excerpt: Tetranychus urticae Spray Test, OP-Resistant (TETRUR)
# as §4, §5, §6
# [9] = system: Frankliniella occidentalis; assay: Frankliniella occidentalis spray test (FRANOC); format: in vivo; settings: 168 h, 7 dat
# Excerpt: Frankliniella occidentalis Spray Test (FRANOC)
# as §6
# Plutella xylostella = Plutella xylostella spray test (PLUTMA); format: in vivo; settings: 168 h, 7 dat
# Excerpt: Plutella xylostella Spray Test (PLUTMA)
# as §4, §5, §6
# Liriomyza trifolii = Liriomyza trifolii spray test (LIRITR); format: in vivo; settings: 168 h, 7 dat
# Excerpt: Liriomyza trifolii Spray Test (LIRITR)
# as §6
# [10] = Myzus persicae, 144 h, MYZUPE, 6 dat
# [11] = Ctenocephalides felis, po, 48 h, CTECFE, 2 dat
Compound,efficacy in % (Spodoptera frugiperda [1]),efficacy in % (Myzus persicae),efficacy in % (Tetranychus urticae [2]),kill in % (effect) (Ctenocephalides felis),inhibition at 0.8 ppm (Ctenocephalides felis; [11]),kill in % (efficacy) (Lucilia cuprina larvae),kill in % (efficacy) (Musca domestica),efficacy in % (laying of fertile eggs) (Boophilus microplus),% Activity dat (Boophilus microplus; 0.032 μg/animal),efficacy in % (laying of fertile eggs) [3],inhibition at 20 ppm [3],inhibition at 0.8 ppm (Phaedon cochleariae [4]),efficacy in % (Phaedon cochleariae [6]),inhibition at 20 ppm (Spodoptera frugiperda [7]),inhibition at 4 ppm (Tetranychus urticae [8]),inhibition at 500 g/ha (Nilaparvata lugens),inhibition at 100 g/ha (Myzus persicae; [10]),inhibition at 20 ppm (Plutella xylostella),other results
CCN(C(=O)c1c(C(F)(F)F)c(C(F)(F)C(F)(F)F)nn1C)c1ccc(Cl)c(C(=O)NC2(C#N)CC2)c1 [Example 6],100%,100%,100%,100%,80%,100%,100%,100%,70%,100%,100%,100%,100%,–,–,–,–,–,"inhibition at 20 g/ha (Myzus persicae; [10]): 70%; inhibition at 20 g/ha (Tetranychus urticae [2]; Tetranychus urticae, foliar, 144 h, TETRUR, 20 g/ha, 6 dat): 100%; inhibition at 20 g/ha (Nilaparvata lugens; 20 g/ha): 90%; chromatographic logP [5]: 3.36"
Cn1nc(C(F)(F)C(F)(F)F)c(C(F)(F)F)c1C(=O)Nc1ccc(Cl)c(C(=O)NC2CC2)c1 [Ik-1],–,–,–,–,0%,–,–,–,–,–,–,–,–,20%,40%,0%,–,–,inhibition at 20 ppm (Heliothis armigera): 45%; inhibition at 20 g/ha ([9]; 20 g/ha): 0%
CN(C(=O)c1c(C(F)(F)F)c(C(F)(F)C(F)(F)F)nn1C)c1ccc(Cl)c(C(=O)NC2(C#N)CC2)c1 [Example 8],100%,100%,100%,100%,90%,100%,100%,100%,100%,100%,100%,100%,100%,100%,95%,–,100%,100%,chromatographic logP [5]: 3.21
Cn1nc(C(F)(F)F)c(C(F)(F)F)c1C(=O)Nc1ccc(Cl)c(C(=O)NC2(C#N)CC2)c1 [Example 9],100%,90%,100%,100%,–,100%,–,100%,–,100%,–,–,100%,–,–,–,–,–,logP [5]: 2.85 ^a)
"Cn1nc(C(F)(F)C(F)(F)F)c(C(F)(F)F)c1C(=O)Nc1ccc(Cl)c(C(=O)NC2(C(F)(F)F)CC2)c1 [Ik-296, reference compound]",–,–,–,–,–,–,–,–,–,–,–,–,–,–,–,0%,0%,–,inhibition at 500 g/ha [9]: 60%; inhibition at 500 g/ha (Liriomyza trifolii): 0%
Cn1nc(C(F)(F)C(F)(F)F)c(C(F)(F)F)c1C(=O)Nc1ccc(Cl)c(C(=O)NC2CC2c2ccccc2)c1 (stereo not drawn) [Ik-47],–,–,–,–,–,–,–,–,–,–,–,–,–,0%,–,0%,–,0%,"inhibition at 500 g/ha (Myzus persicae; Myzus persicae, 144 h, MYZUPE, 500 g/ha, 6 dat): 0%; inhibition at 20 ppm (Ctenocephalides felis; Ctenocephalides felis, po, 48 h, CTECFE, 20 ppm, 2 dat): 50%; inhibition at 100 ppm (Musca domestica; Musca domestica, 48 h, MUSCDO, 2 dat): 0%; % Activity dat (Boophilus microplus; 0.8 μg/animal): 50%; inhibition at 20 ppm (Heliothis armigera): 0%; inhibition at 20 ppm (Tetranychus urticae [8]; 20 ppm): 30%; inhibition at 500 g/ha [9]: 0%; inhibition at 20 g/ha (Phaedon cochleariae [6]): 0%"
"C[C@H]1C[C@H]1NC(=O)c1cc(NC(=O)c2c(C(F)(F)F)c(C(F)(F)C(F)(F)F)nn2C)ccc1Cl [Ik-279, reference compound]",–,–,–,–,–,–,–,–,–,–,–,–,–,–,0%,–,–,–,"inhibition at 100 g/ha (Spodoptera frugiperda [1]; Spodoptera frugiperda, foliar, 168 h, SPODFR, 100 g/ha, 7 dat): 50%; inhibition at 20 g/ha (Myzus persicae; [10]): 0%; inhibition at 20 g/ha (Phaedon cochleariae [6]): 0%"
"CN(C(=O)c1c(C(F)(F)F)c(C(F)(F)C(F)(F)F)nn1C)c1ccc(Cl)c(C(=O)NC2CC2)c1 [Ik-132, reference compound]",–,–,–,–,30%,–,–,–,0%,–,30%,5%,–,50%,30%,–,0%,5%,–
Cn1nc(C(F)(F)C(F)(F)F)c(C(F)(F)F)c1C(=O)Nc1ccc(Cl)c(C(=O)NC2(C#N)CCC2)c1 [Example 7],83%,–,100%,80%,–,100%,100%,100%,–,–,–,–,100%,–,–,–,–,–,logP [5]: 3.55 ^a)
C[C@@H]1C[C@H]1NC(=O)c1cc(NC(=O)c2c(C(F)(F)F)c(C(F)(F)C(F)(F)F)nn2C)ccc1Cl [Ik-280],–,–,–,–,–,–,–,–,–,–,–,–,–,40%,–,–,–,65%,inhibition at 4 ppm (Phaedon cochleariae [4]; 4 ppm): 0%; inhibition at 100 ppm (Heliothis armigera; 100 ppm): 0%; inhibition at 100 g/ha (Nilaparvata lugens; 100 g/ha): 0%
